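In this assay, cells in 96-well plates receive the compound at five concentrations for 48 hours. Endpoints are linearly interpolated between the surrounding concentrations. The concentration for 50% growth inhibition is given as GI50. Definition used: TGI = concentration required for complete inhibition of growth.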
Key:
Test in all cases: NCI anticancer screen, dose series, 48 h
NCI-H23 lung = tested on: NCI-H23 lung
M14 melanoma = tested on: M14 melanoma
SW-620 colon = tested on: SW-620 colon
TK-10 renal = tested on: TK-10 renal
SK-MEL-5 melanoma = tested on: SK-MEL-5 melanoma
HOP-92 NSCLC = tested on: HOP-92 NSCLC
MCF7 breast = tested on: MCF7 breast
MDA-MB-435 = tested on: MDA-MB-435
COLO 205 colon = tested on: COLO 205 colon
T-47D breast = tested on: T-47D breast
HCT-15 colon = tested on: HCT-15 colon
786-0 renal = tested on: 786-0 renal
SNB-75 CNS = tested on: SNB-75 CNS
K-562 leukemia = tested on: K-562 leukemia
DU-145 prostate = tested on: DU-145 prostate
OVCAR-5 ovarian = tested on: OVCAR-5 ovarian
SF-268 CNS = tested on: SF-268 CNS
HL-60(TB) leukemia = tested on: HL-60(TB) leukemia
OVCAR-4 ovarian = tested on: OVCAR-4 ovarian
OVCAR-8 ovarian = tested on: OVCAR-8 ovarian
SK-MEL-2 melanoma = tested on: SK-MEL-2 melanoma
MALME-3M melanoma = tested on: MALME-3M melanoma
UO-31 renal = tested on: UO-31 renal
SNB-19 CNS = tested on: SNB-19 CNS
OVCAR-3 ovarian = tested on: OVCAR-3 ovarian
A498 renal = tested on: A498 renal
SR leukemia = tested on: SR leukemia
HS 578T breast = tested on: HS 578T breast
UACC-257 melanoma = tested on: UACC-257 melanoma
NCI/ADR-RES ovarian = tested on: NCI/ADR-RES ovarian
SF-539 CNS = tested on: SF-539 CNS
PC-3 prostate = tested on: PC-3 prostate
SK-OV-3 ovarian = tested on: SK-OV-3 ovarian
HT29 colon = tested on: HT29 colon
A549 NSCLC = tested on: A549 NSCLC
SF-295 CNS = tested on: SF-295 CNS
MOLT-4 leukemia = tested on: MOLT-4 leukemia
NCI-H226 lung = tested on: NCI-H226 lung
RXF 393 renal = tested on: RXF 393 renal
NCI-H460 lung = tested on: NCI-H460 lung
EKVX NSCLC = tested on: EKVX NSCLC
ACHN renal = tested on: ACHN renal
CAKI-1 renal = tested on: CAKI-1 renal
MDA-MB-231 breast = tested on: MDA-MB-231 breast
HOP-62 NSCLC = tested on: HOP-62 NSCLC
KM12 colon = tested on: KM12 colon
BT-549 breast = tested on: BT-549 breast
SN12C renal = tested on: SN12C renal
NCI-H522 lung = tested on: NCI-H522 lung
HCC-2998 colon = tested on: HCC-2998 colon
U251 CNS = tested on: U251 CNS
IGROV1 ovarian = tested on: IGROV1 ovarian
MDA-MB-468 breast = tested on: MDA-MB-468 breast
RPMI-8226 leukemia = tested on: RPMI-8226 leukemia
UACC-62 melanoma = tested on: UACC-62 melanoma
SK-MEL-28 melanoma = tested on: SK-MEL-28 melanoma

COc1ccc(-c2nc(Nc3ccccc3S(N)(=O)=O)c3ccccc3n2)cc1
GI50 (NCI-H23 lung): 2.4 µM | TGI (NCI-H23 lung): 7.91 µM | GI50 (M14 melanoma): 6.06 µM | TGI (M14 melanoma): > 100 µM | GI50 (SW-620 colon): 4.19 µM | TGI (SW-620 colon): 97.9 µM | GI50 (TK-10 renal): 21.7 µM | TGI (TK-10 renal): 81.3 µM | GI50 (SK-MEL-5 melanoma): 2.76 µM | TGI (SK-MEL-5 melanoma): 10.4 µM | GI50 (HOP-92 NSCLC): 7.68 µM | TGI (HOP-92 NSCLC): 71.3 µM | GI50 (MCF7 breast): 2.55 µM | TGI (MCF7 breast): 15.1 µM | GI50 (MDA-MB-435): 4.36 µM | TGI (MDA-MB-435): > 100 µM | GI50 (COLO 205 colon): 5.29 µM | TGI (COLO 205 colon): > 100 µM | GI50 (T-47D breast): 3.47 µM | TGI (T-47D breast): > 100 µM | GI50 (HCT-15 colon): 3.74 µM | TGI (HCT-15 colon): 13.4 µM | GI50 (786-0 renal): 3.75 µM | TGI (786-0 renal): 14.6 µM | GI50 (SNB-75 CNS): 2.32 µM | TGI (SNB-75 CNS): > 100 µM | GI50 (K-562 leukemia): 4.49 µM | TGI (K-562 leukemia): > 100 µM | GI50 (DU-145 prostate): 4.67 µM | TGI (DU-145 prostate): 32.9 µM | GI50 (OVCAR-5 ovarian): 46.1 µM | TGI (OVCAR-5 ovarian): > 100 µM | GI50 (SF-268 CNS): 3.62 µM | TGI (SF-268 CNS): 32.1 µM | GI50 (HL-60(TB) leukemia): > 100 µM | TGI (HL-60(TB) leukemia): > 100 µM | GI50 (OVCAR-4 ovarian): 28.9 µM | TGI (OVCAR-4 ovarian): > 100 µM | GI50 (OVCAR-8 ovarian): 6.41 µM | TGI (OVCAR-8 ovarian): > 100 µM | GI50 (SK-MEL-2 melanoma): > 100 µM | TGI (SK-MEL-2 melanoma): > 100 µM | GI50 (MALME-3M melanoma): 5.24 µM | TGI (MALME-3M melanoma): 50.4 µM | GI50 (UO-31 renal): 9.42 µM | TGI (UO-31 renal): 33.4 µM | GI50 (SNB-19 CNS): 18 µM | TGI (SNB-19 CNS): 63.3 µM | GI50 (OVCAR-3 ovarian): 14.3 µM | TGI (OVCAR-3 ovarian): > 100 µM | GI50 (A498 renal): 10.5 µM | TGI (A498 renal): 57.6 µM | GI50 (SR leukemia): 6.28 µM | TGI (SR leukemia): > 100 µM | GI50 (HS 578T breast): 4.28 µM | TGI (HS 578T breast): > 100 µM | GI50 (UACC-257 melanoma): > 100 µM | TGI (UACC-257 melanoma): > 100 µM | GI50 (NCI/ADR-RES ovarian): 3.19 µM | TGI (NCI/ADR-RES ovarian): 16.6 µM | GI50 (SF-539 CNS): 3.05 µM | TGI (SF-539 CNS): 12.2 µM | GI50 (PC-3 prostate): 7.21 µM | TGI (PC-3 prostate): > 100 µM | GI50 (SK-OV-3 ovarian): 15.7 µM | TGI (SK-OV-3 ovarian): 71.3 µM | GI50 (HT29 colon): 4 µM | TGI (HT29 colon): 32.2 µM | GI50 (A549 NSCLC): 3.7 µM | TGI (A549 NSCLC): 30.9 µM | GI50 (SF-295 CNS): 3 µM | TGI (SF-295 CNS): 13.2 µM | GI50 (MOLT-4 leukemia): 4.41 µM | TGI (MOLT-4 leukemia): > 100 µM | GI50 (NCI-H226 lung): 2.04 µM | TGI (NCI-H226 lung): 7.13 µM | GI50 (RXF 393 renal): 1.91 µM | TGI (RXF 393 renal): 7.27 µM | GI50 (NCI-H460 lung): 2.79 µM | TGI (NCI-H460 lung): 8.9 µM | GI50 (EKVX NSCLC): 5.35 µM | TGI (EKVX NSCLC): 28.4 µM | GI50 (ACHN renal): 6.39 µM | TGI (ACHN renal): 28.3 µM | GI50 (CAKI-1 renal): 3.93 µM | TGI (CAKI-1 renal): 42.5 µM | GI50 (MDA-MB-231 breast): 2.14 µM | TGI (MDA-MB-231 breast): 5.77 µM | GI50 (HOP-62 NSCLC): 12.8 µM | TGI (HOP-62 NSCLC): 45.4 µM | GI50 (KM12 colon): 4.27 µM | TGI (KM12 colon): > 100 µM | GI50 (BT-549 breast): 22.5 µM | TGI (BT-549 breast): > 100 µM | GI50 (SN12C renal): > 100 µM | TGI (SN12C renal): > 100 µM | GI50 (NCI-H522 lung): 4.19 µM | TGI (NCI-H522 lung): 25.7 µM | GI50 (HCC-2998 colon): 3.46 µM | TGI (HCC-2998 colon): 13.7 µM | GI50 (U251 CNS): 3.31 µM | TGI (U251 CNS): 14.2 µM | GI50 (IGROV1 ovarian): 99.2 µM | TGI (IGROV1 ovarian): > 100 µM | GI50 (MDA-MB-468 breast): 2.55 µM | TGI (MDA-MB-468 breast): 8.01 µM | GI50 (RPMI-8226 leukemia): 4.35 µM | TGI (RPMI-8226 leukemia): > 100 µM | GI50 (UACC-62 melanoma): 8.84 µM | TGI (UACC-62 melanoma): > 100 µM | GI50 (SK-MEL-28 melanoma): 7.31 µM | TGI (SK-MEL-28 melanoma): > 100 µM
